Assay results from ChEMBL document CHEMBL4476880, “beta-arrestin effectors and compositions and methods of use thereof” (2013).
Activity calls are given as the source filed them. The rule behind the calls is not given here.

Assays:
[1] = system: Rattus norvegicus; assay: Effect on vascular and cardiac function in normal anesthetized rat assessed as reduction in mean arterial pressure at 0.1 to 10 ug/kg/min, iv; format: functional, organism-based
[2] = system: Rattus norvegicus; assay: Effect on heart rate in normal anesthetized rat at 0.1 to 10 ug/kg/min, iv; format: ADME, organism-based; settings: in vivo
[3] = system: Rattus norvegicus; assay: Effect on vascular and cardiac function in normal anesthetized rat assessed as increase in slope of end systolic pressure volume relationship at 0.1 to 10 ug/kg/min, iv; format: functional, organism-based
[4] = system: Rattus norvegicus; assay: Effect on vascular and cardiac function in normal anesthetized rat assessed as preservation of pre-recruitable stroke work at 0.1 to 10 ug/kg/min, iv; format: functional, organism-based
[5] = system: Rattus norvegicus; assay: Effect on vascular and cardiac function in normal anesthetized rat assessed as preservation of stroke volume at 0.1 to 10 ug/kg/min, iv; format: functional, organism-based
[6] = system: Rattus norvegicus; assay: Effect on vascular and cardiac function in normal anesthetized rat assessed as reduction in vaso-constriction at 0.1 to 10 ug/kg/min, iv; format: functional, organism-based
[7] = system: Canis familiaris; assay: Suppression of mean arterial pressure in paced dog model of acute heart failure at 0.01 to 100 ug/kg/min dosed as dose escalation regime with duration of 30 mins for each dose; format: functional, organism-based; settings: Canis lupus familiaris
[8] = system: Canis familiaris; assay: Suppression of systemic vascular resistance in paced dog model of acute heart failure at 0.01 to 100 ug/kg/min dosed as dose escalation regime with duration of 30 mins for each dose; format: functional, organism-based; settings: Canis lupus familiaris
[9] = system: Canis familiaris; assay: Suppression of pulmonary capillary wedge pressure in paced dog model of acute heart failure at 0.01 to 100 ug/kg/min dosed as dose escalation regime with duration of 30 mins for each dose; format: functional, organism-based; settings: Canis lupus familiaris
[10] = system: Canis familiaris; assay: Suppression of right arterial pressure in paced dog model of acute heart failure at 0.01 to 100 ug/kg/min dosed as dose escalation regime with duration of 30 mins for each dose; format: functional, organism-based; settings: Canis lupus familiaris
[11] = system: Canis familiaris; assay: Preservation of cardiac output in paced dog model of acute heart failure at 0.01 to 100 ug/kg/min dosed as dose escalation regime with duration of 30 mins for each dose; format: functional, organism-based; settings: Canis lupus familiaris
[12] = system: Canis familiaris; assay: Increase in renal blood flow in paced dog model of acute heart failure at 0.01 to 100 ug/kg/min dosed as dose escalation regime with duration of 30 mins for each dose; format: functional, organism-based; settings: Canis lupus familiaris
[13] = system: Canis familiaris; assay: Suppression of renal vascular resistance in paced dog model of acute heart failure at 0.01 to 100 ug/kg/min dosed as dose escalation regime with duration of 30 mins for each dose; format: functional, organism-based; settings: Canis lupus familiaris
[14] = system: Canis familiaris; assay: Increase in urine sodium excretion in paced dog model of acute heart failure at 0.01 to 100 ug/kg/min dosed as dose escalation regime with duration of 30 mins for each dose; format: functional, organism-based; settings: Canis lupus familiaris
[15] = system: Canis familiaris; assay: Increase in urine output in paced dog model of acute heart failure at 0.01 to 100 ug/kg/min dosed as dose escalation regime with duration of 30 mins for each dose; format: functional, organism-based; settings: Canis lupus familiaris
[16] = system: Canis familiaris; assay: Effect on renal function parameters in paced dog model of acute heart failure assessed as maintenance of urine potassium at 0.01 to 100 ug/kg/min dosed as dose escalation regime with duration of 30 mins for each dose; format: functional, organism-based; settings: Canis lupus familiaris
[17] = system: Canis familiaris; assay: Effect on renal function parameters in paced dog model of acute heart failure assessed as maintenance of glomerular filtration rate at 0.01 to 100 ug/kg/min dosed as dose escalation regime with duration of 30 mins for each dose; format: functional, organism-based; settings: Canis lupus familiaris

## CC[C@H](C)[C@H](NC(=O)[C@H](Cc1ccc(O)cc1)NC(=O)[C@@H](NC(=O)[C@H](CCCNC(=N)N)NC(=O)CNC)C(C)C)C(=O)N[C@@H](Cc1cnc[nH]1)C(=O)N1CCC[C@H]1C(=O)N[C@H](C)C(=O)O [TRV-120027]
[1]
  Activity: Dose-dependent effect
[2]
  Activity: Non-Toxic
[3]
  Activity: Active
[4]
  Activity: Active
[5]
  Activity: Active
[6]
  Activity: Active
[7]
  Activity: Dose-dependent effect
[8]
  Activity: Dose-dependent effect
[9]
  Activity: Dose-dependent effect
[10]
  Activity: Dose-dependent effect
[11]
  Activity: Dose-dependent effect
[12]
  Activity: Dose-dependent effect
[13]
  Activity: Dose-dependent effect
[14]
  Activity: Dose-dependent effect
[15]
  Activity: Dose-dependent effect
[16]
  Activity: Dose-dependent effect
[17]
  Activity: Dose-dependent effect
